Values quoted from earlier work in patent US4361703A, “Para-amino(or nitro)phenyl N-acetylaminothioalkanoates” (priority 1977, dated 1982).

Assays:
[1] = test system: lethal and hepatotoxic effects of paracetamol overdosage; settings: cited from earlier work
death and liver injury = settings: cited from earlier work
mice = settings: mouse, in vivo; cited from earlier work

Compound	effect of methionine combined with paracetamol [1]	effect of methionine added to oral paracetamol dose (death and liver injury)	48 hour survival (mice)
CSCC[C@H](N)C(=O)O [methionine]	greatly reducing the lethal and hepatotoxic effects of paracetamol overdosage	protects against death and liver injury	
CC(=O)N[C@@H](CS)C(=O)O [N-acetylcysteine]			significantly improved 48 hour survival in mice
